PMC9944328 (Nature Communications, 2023)
Read-outs that look alike come from different tables or passages of the source.

Tested on: SSTR2 mutants
Assay: NanoBiT β-arrestin 1 recruitment assay, HEK293 (SSTR2 mutants);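 on Best-fit Bottom: percent of maximal wild-type SSTR2 response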;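 on Best-fit Span: percent of maximal wild-type SSTR2 response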;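 on Best-fit Top: percent of maximal wild-type SSTR2 response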;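 on Bottom (best-fit): percent of maximal wild-type response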;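 on Emax: percent of the maximal wild-type SSTR2 response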;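 on Span (best-fit value): percent of maximal wild-type response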;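 on Span (best-fit): percent of maximal wild-type response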;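 on Top (best-fit value): percent of maximal wild-type response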;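 on Top (best-fit): percent of maximal wild-type response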
Assay type: cell-based, human
Details: for Fold of WT: β-arrestin recruitment EC50
Method: The NanoBiT β-arrestin 1 recruitment assays were carried out according to the method described previously. […] Human full-length SSTR wild-type and mutant vectors were C-terminally fused with a 15-amino acid flexible linker and the small fragment (SmBiT). HEK293 cells were seeded into six-well microplates at a density of 1.0 × 10^6 cells/well and cultured for 24 h at 37 °C with 5% CO2. After that, cells were co-transfected with pcDNA3.1+ vectors encoding SSTR wild-type or mutants and human β-arrestin 1. After transfecting for 24 h, the transfected cells were suspended and seeded into white 96-well plates, and then cultured at 37 °C overnight. After that the medium in each well was exchanged for 90 μl of 0.01% bovine serum albumin containing 20 μl of 50 μM coelenterazine h (Carbosynth) diluted in the HBSS assay buffer and incubated for 40 min at room temperature. Then, ligands diluted in the assay buffer was added to each well and the luminescence intensity was measured using the Synergy H1 microplate reader and detected at room temperature in a time period. All data presented are means of at least three independent experiments.

[1] = β-arrestin recruitment, SSTR2 F127(3.37)A, n=3
[2] = β-arrestin recruitment, SSTR2 F294(7.35)A, n=3, ND = not detected
[3] = β-arrestin recruitment, SSTR2 I284ECL3A, n=3
[4] = β-arrestin recruitment, SSTR2 K291(7.32)A, n=3, ND = not detected
[5] = β-arrestin recruitment, SSTR2 N276(6.55)A, n=3, ND = not detected
[6] = β-arrestin recruitment, SSTR2 W269(6.48)A, n=3
[7] = β-arrestin recruitment, SSTR2 Y50(1.39)A, n=3
[8] = β-arrestin recruitment, SSTR2 Y205(5.35)A, n=3
[9] = β-arrestin recruitment, SSTR2 Y302(7.43)A, n=3

## N#Cc1cccc(-c2ccc3ncc(-c4cc(F)cc(F)c4)c(N4CCC(N)CC4)c3c2)c1O [paltusotine]
F127A-1
  Bottom (best-fit): -1.415
  LogEC50 (best-fit): -6.677
  Span (best-fit): 63.7
  Top (best-fit): 62.28
F127A-2
  Bottom (best-fit): -1.034
  LogEC50 (best-fit): -6.706
  Span (best-fit): 59.48
  Top (best-fit): 58.45
F127A-3
  Bottom (best-fit): -1.184
  LogEC50 (best-fit): -6.817
  Span (best-fit): 69.08
  Top (best-fit): 67.89
F294(7.35)A
  β-arrestin recruitment of mutant: slightly influenced the β-arrestin pathway
I284ECL3A, K291(7.32)A and N276(6.55)A
  β-arrestin recruitment of mutants: slightly enhanced recruitment of β-arrestin
SSTR2 I284A, run 1
  Best-fit Bottom: -1.437
  Best-fit LogEC50: -6.742
  Best-fit Span: 206.6
  Best-fit Top: 205.2
SSTR2 I284A, run 2
  Best-fit Bottom: -1.082
  Best-fit LogEC50: -6.742
  Best-fit Span: 155.6
  Best-fit Top: 154.5
SSTR2 I284A, run 3
  Best-fit Bottom: -1.233
  Best-fit LogEC50: -6.745
  Best-fit Span: 219.6
  Best-fit Top: 218.3
SSTR2 W269A, run W269A-1
  Bottom (best-fit value): -0.1166
  LogEC50 (best-fit value): -6.523
  Span (best-fit value): 23.55
  Top (best-fit value): 23.43
SSTR2 W269A, run W269A-2
  Bottom (best-fit value): -0.1813
  LogEC50 (best-fit value): -6.214
  Span (best-fit value): 28.45
  Top (best-fit value): 28.27
SSTR2 W269A, run W269A-3
  Bottom (best-fit value): 0.3375
  LogEC50 (best-fit value): -6.325
  Span (best-fit value): 20.32
  Top (best-fit value): 20.66
SSTR2 Y50A, run 1
  Best-fit Bottom: -1.913
  Best-fit LogEC50: -7.128
  Best-fit Span: 70.62
  Best-fit Top: 68.71
SSTR2 Y50A, run 2
  Best-fit Bottom: -2.472
  Best-fit LogEC50: -7.187
  Best-fit Span: 103.4
  Best-fit Top: 100.9
SSTR2 Y50A, run 3
  Best-fit Bottom: -2.529
  Best-fit LogEC50: -7.176
  Best-fit Span: 105.2
  Best-fit Top: 102.6
SSTR2 Y205A, run Y205A-1
  Bottom (best-fit value): -3.142
  LogEC50 (best-fit value): -6.819
  Span (best-fit value): 125.5
  Top (best-fit value): 122.3
SSTR2 Y205A, run Y205A-2
  Bottom (best-fit value): -4.259
  LogEC50 (best-fit value): -6.824
  Span (best-fit value): 138.9
  Top (best-fit value): 134.6
SSTR2 Y205A, run Y205A-3
  Bottom (best-fit value): -4.015
  LogEC50 (best-fit value): -6.671
  Span (best-fit value): 203.2
  Top (best-fit value): 199.2
V103(2.64)A
  β-arrestin signal of mutant: markedly reduced the paltusotine-induced β-arrestin signal
best-fit, D295A-1
  Bottom (β-arrestin1 recruitment): 0.727
  LogEC50 (β-arrestin1 recruitment): -5.635
  Span (β-arrestin1 recruitment): 100
  Top (β-arrestin1 recruitment): 100.7
best-fit, D295A-2
  Bottom (β-arrestin1 recruitment): 1.431
  LogEC50 (β-arrestin1 recruitment): -5.595
  Span (β-arrestin1 recruitment): 100.8
  Top (β-arrestin1 recruitment): 102.3
best-fit, D295A-3
  Bottom (β-arrestin1 recruitment): 0.3814
  LogEC50 (β-arrestin1 recruitment): -5.706
  Span (β-arrestin1 recruitment): 93.14
  Top (β-arrestin1 recruitment): 93.53
best-fit, F294A-1
  Bottom (β-arrestin1 recruitment): -2.632
  LogEC50 (β-arrestin1 recruitment): -5.979
  Span (β-arrestin1 recruitment): 125.8
  Top (β-arrestin1 recruitment): 123.2
best-fit, F294A-2
  Bottom (β-arrestin1 recruitment): -1.982
  LogEC50 (β-arrestin1 recruitment): -5.979
  Span (β-arrestin1 recruitment): 94.75
  Top (β-arrestin1 recruitment): 92.77
best-fit, F294A-3
  Bottom (β-arrestin1 recruitment): -2.454
  LogEC50 (β-arrestin1 recruitment): -6.059
  Span (β-arrestin1 recruitment): 130.8
  Top (β-arrestin1 recruitment): 128.3
best-fit, K291A-1
  Bottom (β-arrestin1 recruitment): -2.723
  LogEC50 (β-arrestin1 recruitment): -7.098
  Span (β-arrestin1 recruitment): 158
  Top (β-arrestin1 recruitment): 155.2
best-fit, K291A-2
  Bottom (β-arrestin1 recruitment): -3.352
  LogEC50 (β-arrestin1 recruitment): -7.045
  Span (β-arrestin1 recruitment): 143.2
  Top (β-arrestin1 recruitment): 139.9
best-fit, K291A-3
  Bottom (β-arrestin1 recruitment): -4.699
  LogEC50 (β-arrestin1 recruitment): -6.141
  Span (β-arrestin1 recruitment): 138.3
  Top (β-arrestin1 recruitment): 133.6
best-fit, N276A-1
  Bottom (β-arrestin1 recruitment): -2.311
  LogEC50 (β-arrestin1 recruitment): -7.135
  Span (β-arrestin1 recruitment): 170
  Top (β-arrestin1 recruitment): 167.7
best-fit, N276A-2
  Bottom (β-arrestin1 recruitment): -1.74
  LogEC50 (β-arrestin1 recruitment): -7.135
  Span (β-arrestin1 recruitment): 128
  Top (β-arrestin1 recruitment): 126.3
best-fit, N276A-3
  Bottom (β-arrestin1 recruitment): -2.993
  LogEC50 (β-arrestin1 recruitment): -7.215
  Span (β-arrestin1 recruitment): 180.6
  Top (β-arrestin1 recruitment): 177.6
best-fit, Y302A-1
  Bottom (β-arrestin1 recruitment): 0.04519
  LogEC50 (β-arrestin1 recruitment): -6.65
  Span (β-arrestin1 recruitment): 206.8
  Top (β-arrestin1 recruitment): 206.8
best-fit, Y302A-2
  Bottom (β-arrestin1 recruitment): -0.03402
  LogEC50 (β-arrestin1 recruitment): -6.645
  Span (β-arrestin1 recruitment): 207.2
  Top (β-arrestin1 recruitment): 207.2
best-fit, Y302A-3
  Bottom (β-arrestin1 recruitment): -0.02562
  LogEC50 (β-arrestin1 recruitment): -6.645
  Span (β-arrestin1 recruitment): 156
  Top (β-arrestin1 recruitment): 156
read-out: Best-fit EC50, SSTR2 I284A, run 1
  EC50: 0.181 µM
read-out: Best-fit EC50, SSTR2 I284A, run 3
  EC50: 0.18 µM
read-out: Best-fit EC50, SSTR2 Y50A, run 1
  EC50: 0.0744 µM
read-out: Best-fit EC50, SSTR2 Y50A, run 2
  EC50: 0.065 µM
read-out: Best-fit EC50, SSTR2 Y50A, run 3
  EC50: 0.0667 µM
read-out: EC50 (best-fit value), SSTR2 W269A, run W269A-1
  EC50: 0.3 µM
read-out: EC50 (best-fit value), SSTR2 W269A, run W269A-2
  EC50: 0.61 µM
read-out: EC50 (best-fit value), SSTR2 W269A, run W269A-3
  EC50: 0.474 µM
read-out: EC50 (best-fit value), SSTR2 Y205A, run Y205A-2
  EC50: 0.15 µM
read-out: EC50 (best-fit value), SSTR2 Y205A, run Y205A-3
  EC50: 0.213 µM
read-out: EC50 (best-fit), F127A-1
  EC50: 0.21 µM
read-out: EC50 (best-fit), F127A-2
  EC50: 0.197 µM
read-out: EC50 (best-fit), F127A-3
  EC50: 0.152 µM
read-out: EC50 (β-arrestin1 recruitment), best-fit, D295A-1
  EC50: 2.32 µM
read-out: EC50 (β-arrestin1 recruitment), best-fit, D295A-2
  EC50: 2.54 µM
read-out: EC50 (β-arrestin1 recruitment), best-fit, D295A-3
  EC50: 1.97 µM
read-out: EC50 (β-arrestin1 recruitment), best-fit, F294A-1
  EC50: 1.05 µM
read-out: EC50 (β-arrestin1 recruitment), best-fit, F294A-3
  EC50: 0.872 µM
read-out: EC50 (β-arrestin1 recruitment), best-fit, K291A-1
  EC50: 0.0797 µM
read-out: EC50 (β-arrestin1 recruitment), best-fit, K291A-2
  EC50: 0.0902 µM
read-out: EC50 (β-arrestin1 recruitment), best-fit, N276A-1
  EC50: 0.0732 µM
read-out: EC50 (β-arrestin1 recruitment), best-fit, N276A-3
  EC50: 0.061 µM
read-out: EC50 (β-arrestin1 recruitment), best-fit, Y302A-1
  EC50: 0.224 µM
read-out: EC50 (β-arrestin1 recruitment), best-fit, Y302A-2
  EC50: 0.226 µM
SSTR2 D295(7.36)A
  Fold of WT: 1.22
SSTR2 F127(3.37)A
  Fold of WT: 0.49
SSTR2 F294(7.35)A
  Fold of WT: 2.44
SSTR2 I284ECL3A
  Fold of WT: 0.45
SSTR2 K291(7.32)A
  Fold of WT: 0.21
SSTR2 N276(6.55)A
  Fold of WT: 0.17
SSTR2 W269(6.48)A
  Fold of WT: 2.65
SSTR2 Y50(1.39)A
  Fold of WT: 0.17
SSTR2 Y205(5.35)A
  Fold of WT: 0.42
SSTR2 Y302(7.43)A
  Fold of WT: 0.56
β-arrestin recruitment, SSTR2 D295(7.36)A, detected at 10 μM, n=3
  Emax: 87.12±2.30 %WT
β-arrestin recruitment, SSTR2 D295(7.36)A, n=3
  EC50: 0.4957 ± 0.00176 µM
[1]
  EC50: 0.198 ± 0.00666 µM
  Emax: 60.24±1.11 %WT
β-arrestin recruitment, SSTR2 F208(5.38)A, detected at 10 μM, n=3
  Emax: 70.89±2.39 %WT
β-arrestin recruitment, SSTR2 F265(6.44)A, detected at 10 μM, n=3 octreotide, 4 paltusotine
  Emax: 49.61±1.04 %WT
[2]
  EC50: 0.9907 ± 0.00593 µM
  Emax: 114.80±11.09 %WT
β-arrestin recruitment, SSTR2 I130(3.40)A, detected at 10 μM, n=3
  Emax: 30.45±0.36 %WT
[3]
  EC50: 0.181 ± 0.00333 µM
  Emax: 192.70±19.45 %WT
[4]
  EC50: 0.0867 ± 0.0035 µM
  Emax: 133.50±14.76 %WT
β-arrestin recruitment, SSTR2 L99(2.60)A, detected at 10 μM, n=3
  Emax: 84.26±3.71 %WT
[5]
  EC50: 0.0691 ± 0.00407 µM
  Emax: 157.20±15.71 %WT
β-arrestin recruitment, SSTR2 P220(5.50)A, detected at 10 μM, n=4
  Emax: 50.55±2.81 %WT
β-arrestin recruitment, SSTR2 Q102(2.63)A, detected at 10 μM, n=3
  Emax: 26.07±1.00 %WT
β-arrestin recruitment, SSTR2 Q126(3.36)A, detected at 10 μM, n=3
  Emax: 65.37±3.31 %WT
β-arrestin recruitment, SSTR2 T194(45.51)A, n=3
  Emax: 95.9±9.02 %WT
[6]
  EC50: 1.077 ± 0.00628 µM
  Emax: 50.80±24.99 %WT
[7]
  EC50: 0.0687 ± 0.00287 µM
  Emax: 90.74±11.02 %WT
[8]
  EC50: 0.172 ± 0.00207 µM
  Emax: 152.00±23.85 %WT
[9]
  EC50: 0.225 ± 0.00667 µM
  Emax: 190.00±17.00 %WT
